Test results taken from US11407819B2, “Compositions and use of a fibrinogen binding motif present in EFB and COA for therapeutics and vaccines against Staphylococcus aureus” (priority 2013, dated 2022).
Entries after “also recorded” stand apart in the source; their conditions may differ.

Assays:
rEfb-N binding to Fg = molecular target: T1, rEfb-N binding to Fg (Homo sapiens, UniProt P02671+P02675+P02679); experiment: Competition ELISA, peptide inhibition of rEfb-N (Efb 30-104) binding to Fg; conditions: increasing concentration of peptides; 2 nM GST fusion protein
T1 construct: full-length human Fibrinogen (diluted in PBS, Enzyme research); purchased Enzyme research; host or cells: Efb probe made in E. coli
T1 sequence (P02671 20-629 limits assumed): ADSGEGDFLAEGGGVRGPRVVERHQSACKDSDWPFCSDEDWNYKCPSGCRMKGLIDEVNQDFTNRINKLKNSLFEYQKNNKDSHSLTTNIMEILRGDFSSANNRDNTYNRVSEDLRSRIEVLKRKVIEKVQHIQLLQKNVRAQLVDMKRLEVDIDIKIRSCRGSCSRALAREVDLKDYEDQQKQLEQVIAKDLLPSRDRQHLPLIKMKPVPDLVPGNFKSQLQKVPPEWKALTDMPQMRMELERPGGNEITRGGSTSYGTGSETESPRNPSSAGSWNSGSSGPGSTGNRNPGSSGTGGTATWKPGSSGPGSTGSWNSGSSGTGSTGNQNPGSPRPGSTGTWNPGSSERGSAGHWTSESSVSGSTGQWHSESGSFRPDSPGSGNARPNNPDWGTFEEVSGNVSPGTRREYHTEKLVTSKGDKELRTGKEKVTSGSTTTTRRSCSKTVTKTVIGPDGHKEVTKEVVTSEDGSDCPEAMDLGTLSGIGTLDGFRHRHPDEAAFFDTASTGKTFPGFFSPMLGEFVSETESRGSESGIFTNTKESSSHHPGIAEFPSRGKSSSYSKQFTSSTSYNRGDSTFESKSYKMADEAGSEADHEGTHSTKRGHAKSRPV
T1 sequence (P02675 31-491): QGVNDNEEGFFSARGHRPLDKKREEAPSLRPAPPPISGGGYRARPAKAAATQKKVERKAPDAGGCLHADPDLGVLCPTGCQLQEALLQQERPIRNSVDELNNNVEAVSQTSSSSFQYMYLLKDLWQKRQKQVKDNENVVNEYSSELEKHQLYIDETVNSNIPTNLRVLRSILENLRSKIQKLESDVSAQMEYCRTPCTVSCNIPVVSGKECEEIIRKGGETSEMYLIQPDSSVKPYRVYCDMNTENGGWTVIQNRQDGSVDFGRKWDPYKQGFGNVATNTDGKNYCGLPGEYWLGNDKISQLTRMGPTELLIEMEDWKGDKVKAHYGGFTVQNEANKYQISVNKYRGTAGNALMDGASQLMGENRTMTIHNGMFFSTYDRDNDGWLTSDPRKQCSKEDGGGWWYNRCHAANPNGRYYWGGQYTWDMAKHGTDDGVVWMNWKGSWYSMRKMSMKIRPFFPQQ
T1 sequence (P02679 27-453): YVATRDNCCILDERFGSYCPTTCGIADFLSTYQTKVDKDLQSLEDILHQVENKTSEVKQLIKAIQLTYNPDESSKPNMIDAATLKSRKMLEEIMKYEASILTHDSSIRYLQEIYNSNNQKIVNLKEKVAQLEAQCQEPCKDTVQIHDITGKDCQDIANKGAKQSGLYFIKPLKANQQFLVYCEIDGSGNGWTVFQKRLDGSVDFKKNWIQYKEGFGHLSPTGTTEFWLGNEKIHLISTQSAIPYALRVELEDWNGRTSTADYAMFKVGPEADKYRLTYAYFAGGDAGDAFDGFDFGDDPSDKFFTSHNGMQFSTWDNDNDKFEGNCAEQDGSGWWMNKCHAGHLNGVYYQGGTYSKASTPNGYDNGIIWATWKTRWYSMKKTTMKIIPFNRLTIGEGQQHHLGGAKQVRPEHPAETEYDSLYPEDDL
From the text: Coa-F contains an Efb like fibrinogen binding motif. FIG. 11A is an image of a ClustalW alignment of amino acid sequence from Efb-O (Efb 68-98) and Coa from Newman strain (col-Newman). Sequence similarity was identified at Coa 474-505. Bold letters denote conserved residues and underlined letters represent similar residues. FIGS. 11B and 11C show a comparison of amino acid sequence of Efb-O with Coa 474-505 (FIG. 11B) and Coa 506-532 (FIG. 11C). Large letters in Efb-O indicate the residues important for Fg binding. The red letters show the identical residues and the yellow letters indicate the similar residues. […] Increasing concentration of Coa peptides was incubated with 2 nM GST fusion proteins in Fg-coated microtiter wells. Closed square, sCoa-O; closed circle, sCoa-RI; closed triangle, sEfb-O.
A peptide was synthesized that corresponds to the Coa-O sequence (sCoa-O) and determined its Fg binding activity in a competition ELISA. Microtiter wells were coated with Fg and binding of the recombinant N-terminal segment of Efb (rEfb-N), that harbors the two Fg binding sites, was quantitated in the presence of increasing concentration of different synthetic peptides.
In the case of peptide inhibition assay, various concentration of Efb or Coa peptides were mixed with a fixed concentration of Coa-GST or Efb-GST fusion proteins (5-10 nM) in TBS and the bound GST fusion proteins were detected through incubation with HRP-conjugated rabbit anti-GST polyclonal antibodies (5000× dilution). All proteins were diluted in TBS containing 1% BSA and 0.05% TWEEN® 20 and the ELISA assays were carried out at room temperature.

THP-1 cells = experiment: THP-1 cell adherence to immobilized Fg; format: cell-based; conditions: for inhibition of THP-1 adherence to immobilized Fg: M1/70 20 μg/ml, rEfb 0.2 μM, rCoa 0.5 μM, peptides 0.5 μM each
Experimental: Cell adherence assay using cell lines—A monocytic cell line THP-1 cell stably expressing αMβ2 was maintained in RPMI1640 supplemented with 10% fetal bovine serum, […] L-glutamine, 100 units/ml penicillin and 100 μg/ml streptomycin. Prior to use, cells were harvested by centrifuge, washed and suspended in RPMI 1640/1% human serum albumin. For cell adherence assays, 48-well plates were coated with 200 μl of Fibrinogen (10 μg/ml) overnight at 4° C. followed by 1 hour at 37° C. before blocking with 1% Polyvinylpyrrolidone (PVP 3600 kDa) for 45 minutes at 37° C. Subsequently, the cells were seeded 2×10^5/well in the presence or absence of Coa or Efb recombinant proteins or peptides and incubated at 37° C. for 25 minutes. Non-adherent cells were removed by washing gently three times with PBS/1% BSA. Adherent cells were quantitated with CyQuant kit according to the manufacturer's manual.

## sCoa-RI: synthetic peptide, first 27 residues of repeat region, Coa 506-532 (ETNAYNVTTHANGQVSYGARPTYKKPS)
rEfb-N binding to Fg
  inhibition of rEfb-N binding to Fg: effectively inhibited rEfb-N binding to Fg; also recorded: somewhat more effective inhibitor than sCoa-O
THP-1 cells
  inhibition of THP-1 adherence to immobilized Fg: did not inhibit THP-1 adherence

## sEfb-O: synthetic peptide mimicking the high affinity Fg-binding motif in Efb (Efb 68-98) (KYIKFKHDYNILEFNDGTFEYGARPQFN)
rEfb-N binding to Fg
  inhibition of rEfb-N binding to Fg: potently inhibited rEfb-N binding to the Fg surface; also recorded: effectively inhibited rEfb-N binding to Fg
THP-1 cells
  inhibition of THP-1 adherence to immobilized Fg: did not inhibit THP-1 adherence
THP-1 cells; peptide 50 μM preincubated with rEfb (0.2 μM) or rCoa (0.2 μM)
  reversal of inhibition of THP-1 adherence elicited by rEfb or rCoa: reverses the inhibitory activities
